# From patent publication US20210214368A1, “COMPOUNDS FOR THIOL-TRIGGERED COS AND/OR H2S RELEASE AND METHODS OF MAKING AND USING THE SAME” (University of Oregon, priority 2018, published 2021)
# How the values were obtained:
# [1] = Thiol-triggered H2S release in PBS containing CA (MB assay); conditions: compound 50 μM
# Procedure: To evaluate thiol effects on COS/H2S release from cyclic perthiocarbamate compound embodiments, compound 306a (50 μM) was incubated in PBS (pH 7.4, 10 mM) containing Cys or GSH (up to 4.0 mM) and CA (25 μg/mL) and H2S release was monitored by MB assay. […] Additionally, other thiol triggers, such as cysteine, homocysteine, and N-acetyl cysteine, were combined with compound 306a to evaluate if they would trigger the compound to release H2S.
# In this example, GSH-triggered H2S release from compound 900 was evaluated. […] To improve the H2S releasing capacity of ATB-346, compound 900 was made by reacting ATB-346 with chlorocarbonyl sulfenyl chloride reagent (see Scheme 9). The resultant compound 900 was then added to PBS containing GSH and CA.
# Release of H2S from compound 404c (25 μM) in the presence of L-cysteine or reduced glutathione (GSH) (500 μM, 20 equiv.) measured by the spectrophotometric methylene blue assay, with results shown in FIG. 17.
# In this example, additional compounds, such as cyclic sulfenyl thiocarbamate compounds 306a-306e, were evaluated for their ability to release H2S upon exposure to a biological thiol, cysteine.
# With the hybrid NSAID in hand, COS/H2S release in aqueous buffer was evaluated.
# HeLa cells = assay: Imaging of H2S delivery in HeLa cells with SF7-AM probe; format: cell-based; conditions: compound 50 μM 30 minutes, SF7-AM 5 μM
# Procedure: In this example, H2S delivery from sulfenyl thiocarbamate compound 306a in HeLa cells was evaluated. HeLa cells were treated with Hoechst dye and SF7-AM (5 μM) in DMEM only for 5 minutes and then with DMEM only for 30 minutes (top row) or DMEM containing the compound (50 μM) for 30 minutes (bottom row). Cells were then washed with PBS and cell images were taken in PBS using a fluorescent microscope.
compound,measurement,setting,value
O=c1nc(-c2ccccc2)ss1 [Compound 306a],GSH-dependent H2S release,"[1]; GSH up to 4.0 mM, CA 25 μg/mL, PBS pH 7.4",GSH-dependent H2S release was observed
same,"H2S release in the presence of thiols GSH, Cys, Hcy, and NAC","[1]; PBS, CA",H2S release was observed
same,"H2S release with GSSG, Lys, Ser, Gly, S2O3^2−, SO3^2−, SO4^2−","[1]; PBS, CA",did not activate the compound and minimal H2S release was observed
same,H2S release with penicillamine,"[1]; PBS, CA",minimal H2S release
same,H2S release in the absence of thiol trigger,"[1]; PBS, no thiol",Negligible H2S release was observed
same,SF7-AM (H2S probe) fluorescence in HeLa cells,HeLa cells,strong SF7-AM fluorescent signal
